According to publication PMC3349712, “DipA, a Pore-Forming Protein in the Outer Membrane of Lyme Disease Spirochetes Exhibits Specificity for the Permeation of Dicarboxylates” (PLoS ONE, 2012):

These molecules were tested against T1, DipA (Borreliella burgdorferi, UniProt O51379) (assay: biochemical).
T1 construct: gene BB_0418; native protein from outer membrane fraction of B. burgdorferi B31 delta-p66, hydroxyapatite chromatography in Genapol, untagged; predicted 20-residue signal peptide removed; 36 kDa; minor truncated OspA/OspB in fraction
T1 sequence (O51379 entry or part of it): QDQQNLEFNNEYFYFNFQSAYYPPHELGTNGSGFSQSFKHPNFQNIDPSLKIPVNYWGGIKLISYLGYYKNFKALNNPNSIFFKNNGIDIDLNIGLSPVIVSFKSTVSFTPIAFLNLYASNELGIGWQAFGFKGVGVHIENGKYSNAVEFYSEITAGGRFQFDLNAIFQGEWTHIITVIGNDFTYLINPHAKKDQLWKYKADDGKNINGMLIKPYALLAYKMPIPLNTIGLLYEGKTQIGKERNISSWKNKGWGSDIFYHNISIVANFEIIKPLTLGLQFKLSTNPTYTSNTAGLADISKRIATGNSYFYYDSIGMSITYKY
Assay type: binding
Text: planar lipid bilayer, titration of channel conductance block on DipA

Row | Structure (SMILES) | Kd [µM]
1 | O=C(O)CCC(=O)C(=O)O [2-Oxoglutarate] | 286
2 | N[C@@H](CC(=O)O)C(=O)O [Aspartate] | 769
3 | O=C(O)CC(O)(CC(=O)O)C(=O)O [Citrate] | 76.9
4 | O=C(O)/C=C/C(=O)O [Fumarate] | 2380
5 | N[C@@H](CCC(=O)O)C(=O)O [Glutamate] | 800
6 | O=C(O)C[C@H](O)C(=O)O [Malate] | 769
7 | O=C(O)/C=C\C(=O)O [Maleate] | 35.3
8 | O=C(O)CC(=O)C(=O)O [Oxaloacetate] | 50.3
9 | O=C(O)c1ccccc1C(=O)O [Phthalate] | 175
10 | CC(=O)C(=O)O [Pyruvate] | 2130
11 | O=C(O)CCC(=O)O [Succinate] | 164
